Marks after values point to notes of the source that are not given here.
Legend:
Assay type in all cases: in vivo, SD rats
[1] = tested on: IL-6; test: Inflammatory factor experiment A: IL-6 in gouty arthritis rats; settings: synovial tissue of knee joints; dose 0.6 mg/kg gavage; day 10
Experimental: (§1) Compounds 14, 17 and 26 were prepared by grinding with 0.5% CMC-Na before administration and into a suspension for gavage at the corresponding concentration (0.06 mg/mL), with a dosage volume of 10 mL/kg. Colchicine, purchased from Sun Chemical Technology (Shanghai) Co., Ltd. with batch no. 49ETRRAS, and was prepared by grinding with 0.5% CMC-Na before administration and into a suspension for gavage at the corresponding concentration (0.06 mg/mL), with a dosage volume of 10 mL/kg.
(§2) The compounds in each group were prepared into a suspension of the corresponding concentration, and the dosage volume was 10 mL/kg.
(§3) The crystalline arthritis model was prepared by intra-articular injection of urate crystals (40 mg/mL in the left ankle joint of each rat). Different doses of the test compounds were given separately by gavage administration. The day of administration was defined as day 1 of the experiment, and the compounds were administered once a day for 10 consecutive days (pre-administration of the drug for 7 days prior to modeling, modeling on day 8, and continuation of the drug for 3 days). The experiment ended on day 10. […]

[2] = tested on: gouty arthritis in rats (urate crystals, left ankle joint); test: Pharmacodynamics experiment A on gouty arthritis in rats: paw volume; settings: for Paw volume versus model group, in words: time points after modeling; for Paw volume: Mean ± SEM
Experimental: (§4) Compounds 2, 17, 26 and 27 were prepared by grinding with 0.5% CMC-Na into a suspension of the corresponding concentration (0.06 mg/mL) for gavage before administration, and the volume of administration was 10 mL/kg. […] Before use, 0.5% CMC-Na was used for grinding and prepared into a suspension of the corresponding concentration (0.06 mg/mL) for gavage, and the volume of drug administered was 10 mL/kg.
(§5) Each group of subjects was prepared into a suspension of the corresponding concentration, and the administration volume was 10 mL/kg.
(§6) The crystalline arthritis model was prepared by intra-articular injection of urate crystals (40 mg/mL, in the left ankle joint of each rat). Different doses of the test drug were given separately by gavage administration. The day of administration was defined as day 1 of the experiment, and the drug was administered once a day for 10 consecutive days (pre-administration of the drug for 7 days prior to modeling, modeling on day 8, and continuation of the drug for 3 days). The experiment ended on day 10.
Paw volume was measured before administration, before urate injection, and 2, 4, 8, 10, 24, and 48 h after injection.
(§7) The data obtained from the experiment were statistically analyzed using IBM SPSS Statistics 22.0. All measurements were expressed as Mean±S.E.M s. The data were analyzed using SPSS 22.0 statistical software and variance chi-square test was performed on the parameters.

[3] = tested on: gouty arthritis in rats (urate crystals, left ankle joint); test: Pharmacodynamics experiment A on gouty arthritis in rats: gait score; design: Gait Score: scale not given here; settings: 0.6 mg/kg gavage; for Gait versus model group, in words: time points after modeling, P<0.05 or P<0.01; for Gait Score: Mean ± SEM
Experimental: as §4, §5, §6
The degree of lameness of the modeled joints was observed and scored at the same time point.
as §7

[4] = tested on: TNF-α; test: Inflammatory factor experiment A: TNF-α in gouty arthritis rats; settings: synovial tissue of knee joints; dose 0.6 mg/kg gavage; day 10
Experimental: as §1, §2, §3

[5] = tested on: gouty arthritis in rats (urate crystals, left ankle joint); test: Pharmacodynamics experiment A on gouty arthritis in rats: pain score; design: Pain score: scale not given here; settings: 0.6 mg/kg gavage; for Pain versus model group, in words: time points after modeling, P<0.05 or P<0.01; for Pain score: Mean ± SEM
Experimental: as §4, §5, §6
The pain level was scored using the flexion and extension joint pain test scoring method at the same time point.
as §7

[6] = 2 h after modeling, 0.6 mg/kg gavage
[7] = 4 h after modeling, 0.6 mg/kg gavage
[8] = 8 h after modeling, 0.6 mg/kg gavage
[9] = 10 h after modeling, 0.6 mg/kg gavage
[10] = 24 h after modeling, 0.6 mg/kg gavage
[11] = 48 h after modeling, 0.6 mg/kg gavage
[12] = before modeling, 0.6 mg/kg gavage once a day

| Compound | Decreased IL-6 percentage % [1] | Paw volume versus model group, in words ([2]; 0.6 mg/kg gavage) | Paw volume [2, 6] | Paw volume [2, 7] | Paw volume [2, 8] | Paw volume [2, 9] | Paw volume [2, 10] | Paw volume [2, 11] | Paw volume [2, 12] | Gait versus model group, in words [3] | Gait Score ([3]; 2 h after modeling) | Gait Score ([3]; 4 h after modeling) | Gait Score ([3]; 8 h after modeling) | Gait Score ([3]; 10 h after modeling) | Gait Score ([3]; 24 h after modeling) | Gait Score ([3]; 48 h after modeling) | Gait Score ([3]; before modeling) | Decreased TNF-α percentage % [4] | Pain versus model group, in words [5] | Pain score ([5]; 2 h after modeling) | other results |
| --- | --- | --- | --- | --- | --- | --- | --- | --- | --- | --- | --- | --- | --- | --- | --- | --- | --- | --- | --- | --- | --- |
| COc1cc2c(c(OC)c1OC)-c1cc(C)c(=O)c(OC)cc1[C@@H](NC(C)=O)CC2 [Compound 17, (S)—N-(1,2,3,9-tetramethoxy-11-methyl-10-oxo-5,6,7,10-tetrahydrobenzo[a]heptalen-7-yl)acetamide] | 132.54% | significantly reduce the paw volume at 2 h, 8 h, 24 h, and 48 h | 2.54 ± 0.02** cm^3 | 2.58 ± 0.02 cm^3 | 2.54 ± 0.04* cm^3 | 2.55 ± 0.03 cm^3 | 2.41 ± 0.05** cm^3 | 2.23 ± 0.03*** cm^3 | 2.19 ± 0.03 cm^3 | significantly improved the gait at 2 h, 8 h, and 24 h | 1.00 ± 0.00 | 1.20 ± 0.13 | 1.00 ± 0.00 | 1.10 ± 0.10 | 1.10 ± 0.10 | 1.10 ± 0.10 | 0.00 ± 0.00 | 107.16% | significantly improved gait at 2 h, 8 h, and 24 h | 3.10 ± 0.64 | Pain score ([5]; 4 h after modeling): 3.20 ± 0.66; Pain score ([5]; 8 h after modeling): 3.00 ± 0.68; Pain score ([5]; 10 h after modeling): 3.30 ± 0.54; Pain score ([5]; 24 h after modeling): 1.30 ± 0.65; Pain score ([5]; 48 h after modeling): 1.60 ± 0.70; Pain score ([5]; before modeling): 0.00 ± 0.00 |
| COc1cc2c(c(OC)c1OC)-c1ccc(OC3CCOC3)c(=O)cc1[C@@H](NC(C)=O)CC2 (stereo partly drawn) [Compound 26, (S)—N-(1,2,3-trimethoxy-9-oxo-10-[(tetrahydrofuran-3-yl)oxy]-5,6,7,9-tetrahydrobenzo[a]heptalen-7-yl)acetamide] | 113.37% | significantly reduce the paw volume at 2 h, 4 h, and 48 h | 2.53 ± 0.04* cm^3 | 2.54 ± 0.03* cm^3 | 2.55 ± 0.04 cm^3 | 2.57 ± 0.05 cm^3 | 2.47 ± 0.06 cm^3 | 2.34 ± 0.07* cm^3 | 2.19 ± 0.04 cm^3 | significantly improved the gait at 2 h, 8 h, and 24 h | 1.00 ± 0.00 | 1.10 ± 0.10 | 1.20 ± 0.13 | 1.30 ± 0.15 | 1.10 ± 0.10 | 1.10 ± 0.10 | 0.00 ± 0.00 | 160.36% | significantly improved gait at 2 h | 3.00 ± 0.56 | Pain score ([5]; 4 h after modeling): 2.90 ± 0.67; Pain score ([5]; 8 h after modeling): 4.30 ± 0.40; Pain score ([5]; 10 h after modeling): 3.80 ± 0.59; Pain score ([5]; 24 h after modeling): 3.20 ± 0.51; Pain score ([5]; 48 h after modeling): 2.20 ± 0.73; Pain score ([5]; before modeling): 0.00 ± 0.00 |

— patent US20250129012A1, “ANTI-INFLAMMATORY AND ANALGESIC COMPOUNDS AND USE THEREOF” (JIANGSU ATOM BIOSCIENCE AND PHARMACEUTICAL CO., LTD., priority 2021, published 2025)
